Entries after “also recorded” stand apart in the source; their conditions may differ.
Test system: BRAF V600E mutation in urinary cfDNA
Assay: Monitoring of BRAF V600E mutation in urinary cfDNA (droplet digital PCR) of treated LCH/ECD patients
Format: in vivo, human
Conditions: for detection of mutant BRAF V600E in urine cfDNA, treatment naive versus treated patient samples: FIG. 3, treated versus treatment-naive samples; for BRAF V600E mutation burden in urinary cfDNA over time on therapy: histiocytosis (LCH/ECD) patients, serial urine samples during treatment, FIG. 4-6
Protocol: Urinary cell-free (cf)DNA analysis was performed in all patients and plasma cfDNA analysis in 19/26 patients. Serial urinary samples in 10 BRAF V600E mutant samples were also obtained to track disease burden with therapy. Urine and plasma cfDNA were quantified by a droplet digital PCR (ddPCR; QX-100, BioRad).
A two-step assay design was developed for a 28-30 basepair footprint in the target mutant gene sequence. FIG. 1 summarizes the assay design, which includes a first preamplification step to increase the number of copies of a target mutant gene sequence relative to wild-type gene sequences that are present in the sample. The pre-amplification is conducted in the presence of a wild-type (non-mutant) suppressing “WT blocker” oligonucleotide that is complementary to the wild-type sequence (but not the mutant sequence) to decrease amplification of wild-type DNA. The pre-amplification is performed with primers that include adapters (or “tags”) at the 5′ end to facilitate amplification in the second step.
The second step is additional amplification with primers complementary to the tags on the ends of the primers used in the first step and a TaqMan (reporter) probe oligonucleotide complementary to the mutant sequence for quantitative, digital droplet PCR.

Compound | detection of mutant BRAF V600E in urine cfDNA, treatment naive versus treated patient samples | BRAF V600E mutation burden in urinary cfDNA over time on therapy | BRAF V600E mutation in urinary cfDNA after the end of treatment (one subject, end of treatment, FIG. 6)
CC(C)(C)c1nc(-c2cccc(NS(=O)(=O)c3c(F)cccc3F)c2F)c(-c2ccnc(N)n2)s1 [dabrafenib, N-{3-[5-(2-aminopyrimidin-4-yl)-2-tert-butyl-1,3-thiazol-4-yl]-2-fluorophenyl}-2,6-difluorobenzenesulfonamide] | decreased detection of mutant BRAF V600E | a decrease in the mutation in cfDNA during the course of treatment | 
CCCS(=O)(=O)Nc1ccc(F)c(C(=O)c2c[nH]c3ncc(-c4ccc(Cl)cc4)cc23)c1F [vemurafenib, N-{3-[5-(4-Chlorophenyl)-1H-pyrrolo[2,3-b]pyridin-3-carbonyl]-2,4-difluorophenyl}propane-1-sulfonamide] | decreased detection of mutant BRAF V600E | a decrease in the mutation in urinary cfDNA; also recorded: decreased BRAF mutant allele burden with therapy | an increase, or “rebound,” in the amount of the mutation in urinary cfDNA
